Assays:
[1] = tested on: S. aureus ATCC 6538; experiment: Diffusion-well method, inhibition zones; type: cell-based, Staphylococcus aureus; settings: 500 µg/mL, wells 10 mm
Experimental: (§1) The antibacterial activity of tested samples was assessed against both gram-positive bacteria (Staphylococcus aureus ATCC 25923, Staphylococcus aureus ATCC 6538, Staphylococcus epidermidis ATCC 12228, Enterococcus faecalis ATCC 29212, Listeria monocytogenes ATCC 19115, Bacillus subtilis ATCC 6633, Bacillus cereus ATCC 10876) and gram-negative bacteria (Escherichia coli ATCC 10530, Salmonella typhimurium ATCC 14028). Antibacterial properties were evaluated using both the dilution method (employing DMSO and 96-well plates) and the diffusion-well method (using Mueller Hinton Agar, Merck, Germany).
(§2) 24 hour bacterial cultures with a density of 1–2 × 10^8 CFU mL^−1 were plated (0.1 mL) on Mueller–Hinton Agar (Merck, Germany). Subsequently, wells with a diameter of 10 mm were cut out from and filled with 100 μL of the tested compound at a concentration of 10–500 μg mL^−1 (diluted in DMSO). After an 18-hour incubation at either 30 °C (for Bacillus ssp.) or 37 °C (for other tested microorganisms), the inhibition zones around the wells were measured, and the results were expressed in millimetres (Table S9 ^†).

[2] = tested on: S. aureus ATCC 25923; experiment: Diffusion-well method, inhibition zones; type: cell-based, Staphylococcus aureus; settings: 500 µg/mL, wells 10 mm
Experimental: as §1, §2

[3] = tested on: E. coli ATCC 10530; experiment: Diffusion-well method, inhibition zones; type: cell-based, Escherichia coli; settings: 500 µg/mL, wells 10 mm
Experimental: as §1, §2

[4] = tested on: E. faecalis ATCC 29212; experiment: Diffusion-well method, inhibition zones; type: cell-based, Enterococcus faecalis; settings: 500 µg/mL, wells 10 mm
Experimental: as §1, §2

[5] = tested on: B. cereus ŁOCK 0807; experiment: Diffusion-well method, inhibition zones; type: cell-based, Bacillus cereus; settings: 500 µg/mL, wells 10 mm
[6] = tested on: glioblastoma LN-229 cells; experiment: MTT cell viability assay; type: cell-based, human; settings: 48 hours of incubation
Experimental: (§3) The glioblastoma cell lines LN-229 and U87 and the reference human normal skin fibroblast BJ were obtained from the American Type Culture Collection (ATCC). Cells were grown as monolayers when cultured in cell culture flasks and cultured in Dulbecco's Modified Eagle Medium (DMEM) – LN-229 and Eagle's Minimum Essential Medium (EMEM) – U87 and BJ, supplemented with 10% (v/v) fetal bovine serum, penicillin (10 000 U mL^−1), streptomycin (10 mg mL^−1) and amphotericin B (250 μg mL^−1). The cells were incubated at 37 °C, 5% CO2 atmosphere. The cells were maintained in the logarithmic growth phase by regular passage at 80% confluence.
(§4) The cytotoxicity of the tested compounds was evaluated against both human glioblastoma LN-229 and U-87 as well as normal BJ cell lines. The cells were plated in 96-well culture plates (2 × 10^4 well) and after 24 h incubation the cells were treated with the tested compounds in the concentration range 1–50 μM. The cells were cultured for the next 48 h. The cytotoxicity of the compounds was evaluated using the MTT colorimetric method as previously described.[28,29] IC50 values were determined using the AAT Bioquest IC50 calculator as the concentration of compounds capable of reducing cell viability by 50%. The experiment was performed in triplicate for each concentration. To examine the cytotoxic effect of compounds on cell morphology, cells were examined under an inverted phase contrast microscope Nikon Eclipse Ti with NIS Element software (Tokyo, Japan).

[7] = tested on: normal skin fibroblast BJ cells; experiment: MTT cell viability assay; type: cell-based, human; settings: BJ normal fibroblasts; 48 hours of incubation
Experimental: as §3, §4

[8] = tested on: glioblastoma U87 cells; experiment: MTT cell viability assay; type: cell-based, human; settings: 48 hours of incubation
Experimental: as §3, §4

[9] = tested on: S. epidermidis ATCC 12228; experiment: Diffusion-well method, inhibition zones; type: cell-based, Staphylococcus epidermidis; settings: 500 µg/mL, wells 10 mm
Experimental: as §1, §2

[10] = tested on: B. subtilis ATCC 6633; experiment: Diffusion-well method, inhibition zones; type: cell-based, Bacillus subtilis; settings: 500 µg/mL, wells 10 mm
Experimental: as §1, §2

[11] = tested on: Salmonella typhimurium ATCC 14028; experiment: MIC determination; type: cell-based; settings: S. typhimurium ATCC 14028; 18 h
Experimental: as §1
(§5) The minimum inhibitory concentrations (MICs) of the tested samples were evaluated against a panel of reference microorganisms obtained from the American Type Culture Collection (ATCC), including Gram-negative bacteria (Escherichia coli ATCC 10530, Salmonella typhimurium ATCC 14028), and Gram-positive bacteria (Staphylococcus aureus ATCC 25923, Staphylococcus aureus ATCC 6538, Staphylococcus epidermidis ATCC 12228, Enterococcus faecalis ATCC 29212, Listeria monocytogenes ATCC 19115, Bacillus subtilis ATCC 6633), and one strain (Bacillus cereus ŁOCK 0807) obtained from the Pure Culture of Industrial Microorganisms of the Institute of Fermentation Technology and Microbiology ŁOCK 105 (Łódź, Poland).
(§6) The microorganism cultures with a density of 1.5 × 10^8 CFU mL^−1 (corresponding to a McFarland standard of 0.5) were plated on Mueller–Hinton Agar (Merck, Germany) following the procedures recommended by the European Committee on Antimicrobial Susceptibility Testing (EUCAST).[47] Wells measuring 10 mm in diameter were cut into the medium. The tested compounds were dissolved in a DMSO solution, which was recommended due to their chemical structures. Subsequently, 100 μL of prepared solutions containing the tested compounds at concentrations ranging from x μg mL^−1 to x μg mL^−1 were added to each well. The plates were incubated at 30 °C (for Bacillus subtilis and Bacillus cereus) or 37 °C (for other bacteria) for 18 hours. After incubation, the minimum inhibitory concentration (MIC value) was determined (the lowest concentration of the tested compounds that prevents bacterial growth) and expressed in μg mL^−1. The experiment was conducted in three independent replicates. Ciprofloxacin (Sigma Aldrich, Saint Louis, MO, USA) was used as a reference antimicrobial agent against Gram-negative bacteria, while vancomycin (Sigma Aldrich, Saint Louis, MO, USA) was used as a reference antimicrobial agent against Gram-positive bacteria.

[12] = tested on: Escherichia coli ATCC 10530; experiment: MIC determination; type: cell-based; settings: Escherichia coli ATCC 10530, 18 h
Experimental: as §1, §5, §6

[13] = tested on: Staphylococcus epidermidis ATCC 12228; experiment: MIC determination; type: cell-based; settings: S. epidermidis ATCC 12228; 18 h
Experimental: as §1, §5, §6

[14] = tested on: Enterococcus faecalis ATCC 29212; experiment: MIC determination; type: cell-based; settings: E. faecalis ATCC 29212; 18 h
Experimental: as §1, §5, §6

[15] = tested on: Bacillus subtilis ATCC 6633; experiment: MIC determination; type: cell-based; settings: 18 h
Experimental: as §1, §5, §6

[16] = tested on: Staphylococcus aureus ATCC 25923; experiment: MIC determination; type: cell-based; settings: S. aureus ATCC 25923, 18 h
Experimental: as §1, §5, §6

[17] = tested on: Staphylococcus aureus ATCC 6538; experiment: MIC determination; type: cell-based; settings: S. aureus ATCC 6538; 18 h
Experimental: as §1, §5, §6

[18] = tested on: Bacillus cereus ŁOCK 0807; experiment: MIC determination; type: cell-based; settings: Bacillus cereus ŁOCK 0807; 18 h
Experimental: as §1, §5, §6

[19] = tested on: Listeria monocytogenes ATCC 19115; experiment: MIC determination; type: cell-based; settings: Listeria monocytogenes ATCC 19115, 18 h
Experimental: as §1, §5, §6

[20] = tested on: S. Typhimurium ATCC 14028; experiment: Diffusion-well method, inhibition zones; type: cell-based, Salmonella typhimurium; settings: 500 µg/mL, wells 10 mm
Experimental: as §1, §2

[21] = tested on: L. monocytogenes ATCC 19115; experiment: Diffusion-well method, inhibition zones; type: cell-based, Listeria monocytogenes; settings: 500 µg/mL, wells 10 mm
Experimental: as §1, §2

NC(=NN=Cc1ccc([N+](=O)[O-])cc1)c1cccc(N2CCCC2)n1.NC(=NN=Cc1ccc([N+](=O)[O-])cc1)c1cccc(N2CCCC2)n1.O=[N+]([O-])[O-].[Ag+] [Complex 4, AgL4NO3]
Inhibition zone [1]: 16 mm | Inhibition zone [2]: 21 mm | Inhibition zone [3]: 20 mm | Inhibition zone [4]: 15 mm | Inhibition zone [5]: 17 mm | IC50 [6]: > 50 µM | IC50 [7]: > 50 µM | IC50 [8]: 1.22 ± 0.34 µM | Inhibition zone [9]: 16 mm | Inhibition zone [10]: 18 mm | MIC [11]: 100 µg/mL | MIC [12]: ≤ 10 µg/mL | MIC ([12]; listed as 4): < 10 µg/mL | MIC [13]: 50 µg/mL | MIC [14]: 50 µg/mL | MIC [15]: 50 µg/mL | MIC [16]: ≤ 10 µg/mL | MIC ([16]; listed as 4): <10 µg/mL | MIC [17]: 100 µg/mL | MIC [18]: 50 µg/mL | MIC [19]: ≤ 10 µg/mL | MIC ([19]; listed as 4): 10 µg/mL | Inhibition zone [20]: 17 mm | Inhibition zone [21]: 19 mm

— paper PMC12150283, “Synthesis of new Ag(I) and Cd(II) hydrozanomide-based complexes with antibacterial and anticancer properties” (RSC Advances, 2025)
